Measurements as given in publication PMC8536830 (Current Biology, 2021).

Legend:
LGC-50 Δ363-397 = biological target: T1, LGC-50 Δ363-397 (Caenorhabditis elegans, UniProt P41849, DEL363-397); assay: Two-electrode voltage clamp, 5-HT evoked dose response, LGC-50 deletion mutant Δ363-397; format: cell-based, C. elegans
T1 construct: Plasmid: KSM: lgc-50 (cDNA, Δ363 - 397); expressed in transfected cells; host or cells: Xenopus laevis oocytes injected with cRNA (plasmid pJML138)
Method: To identify such domains, we tested the effects of deletion mutations in the LGC-50 M3/4 loop (Figure 5A).
Defolliculated Xenopus laevis oocytes were obtained from EcoCyte Bioscience (Dortmund, Germany) and maintained in ND96 (in mM: 96 NaCl, 1 MgCl2, 5 HEPES, 1.8 CaCl2, 2 KCl) solution at 16°C for 3-5 days.
5'-capped cRNA was synthesized in vitro using the T3 mMessage mMachine transcription kit according to manufacturer’s protocol (Thermo Fischer Scientific, CA, USA). RNA was then purified using the GeneJET RNA purification kit (Thermo Fischer Scientific, CA, USA) prior to cRNA injection. […]
(§1) Two-electrode voltage clamp recordings were carried out using the Robocyte2 recording system or a manual TEVC set up, using an OC-725D amplifier (Multi Channel Systems, Reutlingen, Germany) and paired with a custom-made recording chamber and agar bridges from reference and bath electrodes. […] Data was recorded using WinWCP or RoboCyte2 control software, manual data was filtered at 10 Hz.
(§2) Dose response curves were calculated from the peak current during a 10 s agonist stimulation in ND96 solution, with a 60 s ND96 wash in between doses. […] Normalized dose response data was fitted to a nonlinear curve using a four parameters variable slope and the EC50 and Hill slope was calculated. […] Kinetic measurements were calculated from a 60 s agonist perfusion. […]

[1] = biological target: T2, LGC-50 S335A, T348A, S353A (Caenorhabditis elegans, UniProt P41849, S335A/S353A/T348A); assay: Two-electrode voltage clamp, 5-HT evoked dose response, LGC-50 phospho-dead mutant; format: cell-based, C. elegans
T2 construct: Plasmid: KSM: lgc-50 (cDNA, S335A, T348A, S353A); expressed in transfected cells; host or cells: Xenopus laevis oocytes injected with cRNA (plasmid pIH128)
T2 sequence (P41849 20-491 S335A/T348A/S353A): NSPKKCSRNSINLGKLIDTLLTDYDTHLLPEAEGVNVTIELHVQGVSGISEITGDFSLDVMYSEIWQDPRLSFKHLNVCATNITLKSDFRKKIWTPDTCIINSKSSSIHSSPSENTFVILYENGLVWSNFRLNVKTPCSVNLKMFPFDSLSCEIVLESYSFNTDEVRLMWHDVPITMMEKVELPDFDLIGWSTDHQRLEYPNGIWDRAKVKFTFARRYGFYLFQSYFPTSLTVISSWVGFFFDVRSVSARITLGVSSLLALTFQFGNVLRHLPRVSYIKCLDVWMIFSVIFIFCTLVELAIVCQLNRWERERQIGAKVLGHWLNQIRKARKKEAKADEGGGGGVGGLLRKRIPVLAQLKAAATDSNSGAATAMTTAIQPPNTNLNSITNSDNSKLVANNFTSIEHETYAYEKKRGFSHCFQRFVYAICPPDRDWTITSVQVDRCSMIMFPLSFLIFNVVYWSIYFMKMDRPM
From the text: In addition to this region, we also investigated three upstream predicted phosphorylation sites. Phosphorylation of the M3/4 loop has previously been implicated in the trafficking and cell surface recycling of GABAA receptors.[23]^,[24] The first site in the M3/4 loop of LGC-50, S335, is predicted to be a cdc2 site, and T348 and S353 are predicted protein kinase C (PKC) or PKA sites (Table S2).[25]^,[26] We introduced both phosphorylation-dead alanine mutations and phosphomimic aspartate mutations into these sites to assess their effect on receptor trafficking. […]
as §1, §2

T1 sequence (P41849 other isoform, or with tags, fused parts or gaps DEL363-397): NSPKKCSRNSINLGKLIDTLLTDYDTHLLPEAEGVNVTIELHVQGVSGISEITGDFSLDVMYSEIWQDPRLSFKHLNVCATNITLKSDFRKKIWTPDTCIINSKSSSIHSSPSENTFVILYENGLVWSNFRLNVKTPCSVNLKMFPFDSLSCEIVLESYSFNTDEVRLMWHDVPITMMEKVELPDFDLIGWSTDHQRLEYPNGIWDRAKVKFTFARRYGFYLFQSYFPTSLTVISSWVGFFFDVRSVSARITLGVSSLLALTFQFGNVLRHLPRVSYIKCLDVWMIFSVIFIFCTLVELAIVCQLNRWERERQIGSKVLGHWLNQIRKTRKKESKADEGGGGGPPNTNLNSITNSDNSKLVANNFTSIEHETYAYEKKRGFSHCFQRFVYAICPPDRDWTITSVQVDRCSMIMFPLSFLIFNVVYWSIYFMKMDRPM

Molecule NCCc1c[nH]c2ccc(O)cc12 [5-HT, serotonin] has an EC50 (LGC-50 Δ363-397) of 930 nM and an EC50 [1] of 570 nM.
